The results in this text go back to patent publication US10016423B2, “Solid forms of nilotinib hydrochloride” (Apotex Inc., priority 2014, dated 2018).

This data set is described as follows: Comparative hygroscopicity testing (water content by Karl Fischer analysis). Format: physicochemical. To be noted: for Water content of sample after testing: after 24 hours at 25° C. in desiccator containing saturated ammonium sulphate solution, 1 g sample in unstoppered vessel, KF analysis; for Increase in water content: after vs before 24 hours at 25° C. over saturated ammonium sulphate solution; for Water content of sample before testing: before hygroscopicity testing, Karl Fischer (KF) analysis. The procedure:
The hygroscopicity of form APO-III as reported in WO 2014/059518 A1 was compared with the hygroscopicity of the form APO-VII of the present invention.
The hygroscopicity testing was conducted by placing 1 g of each sample in an unstoppered weighing vessel in a desiccator containing a saturated ammonium sulphate solution. The desiccator was placed in an oven at 25° C. for 24 hours. The water content was measured before and after the testing by Karl Fischer (KF) analysis.

For the molecule `Cc1cn(-c2cc(NC(=O)c3ccc(C)c(Nc4nccc(-c5cccnc5)n4)c3)cc(C(F)(F)F)c2)cn1.Cl` [Form APO-III], the “Water content of sample after testing” value worked out at 3.5671 % w/w, the “Increase in water content” value is on record as 3.2795 and the “Water content of sample before testing” value worked out at 0.2876 % w/w.
The matching figures for `Cc1cn(-c2cc(NC(=O)c3ccc(C)c(Nc4nccc(-c5cccnc5)n4)c3)cc(C(F)(F)F)c2)cn1.Cl` [Form APO-VII]: 0.4757 % w/w, 0.1812 and 0.2945 % w/w.
